Measurements taken from patent publication US11135252B2, “Probiotic therapies for developmental disorders and other neurological disorders” (Baylor College of Medicine, priority 2016, dated 2021).
“Also recorded” adds a separate entry of the source.

Assays:
[1] = system: VTA DA neurons; experiment: Social interaction-induced LTP (AMPAR/NMDAR ratio) in VTA DA neurons of MHFD offspring; format: in vivo, mice; details: for stranger interaction-evoked LTP in the VTA (AMPAR/NMDAR ratio): bacteria in drinking water, 24 hours after 10 min reciprocal interaction
Description: Brain regions responding to naturally rewarding stimuli, including the ventral tegmental area (VTA) and the nucleus accumbens (NAc), are crucially involved in social behaviors (Dolen et al., 2013; Gunaydin et al., 2014; Huang and Hessler, 2008). In addition, oxytocin-expressing neurons in the PVN project to the VTA (Melis et al., 2007). Oxytocin activates VTA neurons in both mice and humans, influencing the processing of socially relevant cues (Gregory et al., 2015; Groppe et al., 2013; Tang et al., 2014) and oxytocin receptor blockade in the VTA prevents social attachment in rodents (Pedersen et al., 1994). Given that social stimulation can be particularly rewarding and triggers synaptic potentiation in VTA DA neurons of birds (Huang and Hessler, 2008), it was considered whether direct social interaction evokes long-term potentiation (LTP) of synaptic inputs to VTA DA neurons (FIGS. 20A-20C). To this end, AMPAR/NMDAR ratios were recorded of glutamatergic excitatory postsynaptic currents (EPSCs) in MRD and MHFD offspring 24 hours following a 10 min reciprocal interaction with either a stranger or a familiar mouse (FIG. 5A). In control MRD mice, social interaction with a stranger, but not a familiar mouse, triggered LTP in VTA DA neurons, as determined by an increase in AMPAR/NMDAR ratios (FIGS. 5B and 5D).
Recordings were performed as previously described (Ungless et al., 2001; Zhu et al., 2011) and the investigators were kept blind to treatment conditions. Briefly, mice were anesthetized with a mixture of ketamine (100 mg/kg), xylazine (10 mg/kg) and acepromazine (3 mg/kg). Horizontal slices (225-300 μm thick) containing the VTA were cut from the brains of C57BL/6J mice. Mice were transcardially perfused with an ice-cold, oxygenated solution containing (in mM) NaCl, 87; NaHCO3, 25; KCl, 2.5; NaH2PO4, 1.25; MgCl2, 7; CaCl2, 0.5; dextrose, 25; sucrose, 75. […] Data were obtained with a MultiClamp 700B amplifier, digitized at 20 kHz with a Digidata 1440A, recorded by Clampex 10 and analyzed with Clampfit 10 software (Molecular Devices). […] After establishing a gigaohm seal (>2 GΩ) and recording stable spontaneous firing in cell-attached, voltage clamp mode (−70 mV holding potential), cell phenotype was determined by measuring the width of the action potential and the presence of an Ih current. AMPAR/NMDAR ratios were calculated as previously described (Ungless et al., 2001). […]

[2] = system: MHFD offspring; experiment: Reciprocal social interaction test in MHFD offspring; format: in vivo, mice
Description: Animal care and experimental procedures were approved by Baylor College of Medicine's Institutional Animal Care and Use Committee in accordance with all guidelines set forth by the U.S. National Institutes of Health. Reciprocal Social Interaction. Mice were placed in a 25×25×25 cm Plexiglass arena, to which they had not been previously habituated, with either a familiar (cage-mate) or stranger age- and sex-matched conspecific. In all experiments, paired mice were matched for maternal diet, colonization source, and/or treatment. We recorded the time a pair of mice engaged in social interaction (close following, touching, nose-to-nose sniffing, nose-to-anus sniffing, and/or crawling over/under each other). The human observer was blind to maternal diet and/or treatment group. Social behavior was analyzed with AnyMaze automated software. Lactobacillus reuteri MM4-1A (ATCC-PTA-6475) and Lactobacillus johnsonii (ATCC 33200) were cultured anaerobically in MRS broth in a 90% N2, 5% CO2, 5% H2 environment. L. reuteri was heat-killed by keeping the bacteria at 80° C. for 20 minutes (Wang et al., 2010). Bacterial viability was assessed by plating and the efficacy of the heat-kill procedure was confirmed by the absence of colony growth following plating. Cultures were centrifuged, washed, and resuspended in anaerobic solution (PBS) and frozen at −80° C. until use. PBS, live or heat-killed L. reuteri were added to the drinking water, which was changed daily to minimize dosage variability. Whereas the experimental group received live bacteria, one control group received identically prepared cultures of heat-killed bacteria. A second group of control mice received water treated with PBS alone. Live and heat-killed L. reuteri were supplied at a dosage of 1×10^8 organisms/mouse/day continuously in drinking water. Mice consumed the treated water ad libitum over the treatment period. The treated drinking water for each group was replaced daily two hours prior to the onset of the dark cycle to minimize variation in microbial exposure. Behavioral assays were initiated after 4-weeks of L. reuteri or control treatment. The protocol of the L. johnsonii preparation and administration matched the L. reuteri protocol. Fecal samples for sequencing and tissue used in the immunofluorescence studies were collected at the end of the treatment. Oxytocin was obtained from Tocris Bioscience (product 1910) and solubilized in 10% dimethyl sulfoxide (DMSO) in PBS. 10% DMSO in PBS was used as the vehicle control. Mice received oxytocin intranasally (at approximately 200 μg/kg) thirty minutes prior to behavior. 1.25 μl of oxytocin or vehicle solution was injected into each nostril from P10 pipette. Oxytocin dose was selected according to dosages reported to rescue social behavior in genetic models phenotypically expressing ASD-like behaviors (Penagarikano et al., 2015).

Row | Molecule | social interaction-induced LTP in the VTA ([1]; intranasal oxytocin alone, without social interaction) | social interaction-induced LTP in the VTA ([1]; intranasal oxytocin approximately 200 μg/kg combined with stranger social interaction) | contact duration in reciprocal social interaction test ([2]; intranasal oxytocin) | interaction frequency in reciprocal social interaction test ([2]; intranasal oxytocin) | reciprocal social interaction ([2]; intranasal oxytocin approximately 200 μg/kg, 30 min prior) | reciprocal social interaction ([2]; intranasal oxytocin approximately 200 μg/kg, 30 min prior, listed as Oxytocin) | stranger interaction-evoked LTP in the VTA (AMPAR/NMDAR ratio) [1] | stranger interaction-evoked LTP in the VTA (AMPAR/NMDAR ratio) ([1]; listed as live L. reuteri) | reciprocal social interaction ([2]; bacteria in drinking water) | reciprocal social interaction ([2]; bacteria in drinking water, listed as live L. reuteri)
1 | CC[C@H](C)[C@@H]1NC(=O)[C@H](Cc2ccc(O)cc2)NC(=O)[C@@H](N)CSSC[C@@H](C(=O)N2CCC[C@H]2C(=O)N[C@@H](CC(C)C)C(=O)NCC(N)=O)NC(=O)[C@H](CC(N)=O)NC(=O)[C@H](CCC(N)=O)NC1=O [oxytocin] | failed to rescue | restored LTP; also recorded: rescued LTP | improved MHFD offspring contact duration | improved | improved reciprocal social interaction | restored reciprocal social interaction | – | – | – | –
2 | Lactobacillus reuteri MM4-1A (ATCC-PTA-6475) [L. reuteri] | – | – | – | – | – | – | rescued stranger interaction-induced LTP | restored stranger interaction-evoked LTP | rescued | restored reciprocal social interaction
